Values belong to the compound of their own block, whether it stands above or below them.
Legend:
[1] = Solubility of individual coating components in water, ethanol and 1M HCl; assay type: physicochemical
Description: iii) Preparation of Antioxidant/Stabilizer Formulations: Prior to preparation of the antioxidant/stabilizer coating formulation, solubility of the individual components of each formulation was determined in water, ethanol and 1M HCl. Majority of the components were soluble in water, except for two in ethanol and one in 1M HCl. Both n-propyl gallate and Trolox were soluble in ethanol and only L-Tryptophan in 1M HCl. For each individual coating mixture formulation (i.e. Coatings 1-8), in a separate 25 mL glass vial containing the different components individually weighed out based on their respective wt % (see Table 1, below), Coating 1: 22 ml of solvent was used to make the coating solution (i.e. 20 mL of DI/water+2 ml of ethanol); Coating 2: 20 mL of DI/water added to vial; Coating 3: 18 mL of DI/water added+2 mL of ethanol to vial; Coating 4: 20 mL of DI/water+2 mL of ethanol; Coating 5: 16 mL of DI/water+4 mL of 1M HCl; Coating 6: 12 mL of DI/water+2 mL of ethanol+4 mL of 1M HCl; Coating 7: 20 mL of DI/water; Coating 8: 10 ml of DI/water+4 ml of ethanol+5 ml of 1M HCl.

[2] = Solubility of VN peptide in ethanol; assay type: physicochemical; settings: 100% 200-proof ethanol, 0.5 mM or 1 mM, after agitation
Description: iii) Preparation of VN peptide coating solution: A 10 mL 0.5 mM or 1 mM VN coating solution was prepared by weighing out their corresponding masses and dissolving using a 100% 200-proof ethanol as the solvent.

H7 cells [3] = test: Crystal violet staining of H7 cells on gamma sterilized VN peptide acrylate surface, amino acid blocking; assay type: cell-based, human; settings: gamma irradiated; for H7 attachment and growth (crystal violet staining): used as blocking reagent after peptide conjugation
Excerpt: (§1) Acrylate coating: 2-Hydroxyethyl methacryalte, 2-carboxyethyl acrylate, tetra(ethylene glycol) dimethacrylate, Darocur 1173, Irgacure 819 were mixed with ratio of 80:20:3:3:0.1 and dissolved in ethanol at total monomer concentration of 5%. The obtained formulation was spin coated on oxygen plasma treated Zeonor film. After ethanol evaporated, the (meth)acrylate coating was cured using Xenon pulsed UV curing system in nitrogen purged box. Then, the coated films were in-mold-labeled into T-75 Zeonor flasks and used for conjugation directly.
(§2) Peptide conjugation: The acrylate surface was activated for an hour with 1:1 EDC: NHS in DMF. After aspiration of the activation solution, the surface was treated for an hour with 1 mM of the VN peptide (Ac-[…]) (SEQ ID NO:1) in phosphate buffer (pH7.4). After aspiration of the peptide solution, the surface was treated for an hour with 1M ethanolamine adjusted to pH 8.0-8.5 with hydrochloric acid or 0.1M of L-methionine methyl ester hydrochloride adjusted to pH 8 with sodium hydroxide based on experimental design. All reactions were performed at room temperature.
Sterilization: Flasks were packed with nitrogen and desiccant in aluminum pouch for Gamma sterilization. The irradiation dose was 11-18 kGy. Positive control VN-peptide acrylate sample was sanitized with 70% ethanol.
Stem cell culture: H7 cells were sub-cultured into T-75 fasks with desired peptide acrylate surfaces or Matrigel™ coated surfaces (positive control) at the density of 100,000 cell/cm^2 in X-VIVO 10+GF medium. Microscopic examination of cell and colony morphology was performed at day 3 or day 4. Cell number was assessed at day 4 or day 5 by harvesting with collagenase IV/EDTA treatment followed by cell counting with automated cell number/viability analyzer, Vi-Cell (Beckman Coulter). For methionine methyl ester treated surface, a step of rinsing with DPBS was applied to remove amino acid extractables before cell culture.

H7 cells [4] = test: H7 cell count and morphology on gamma sterilized VN peptide acrylate surface after amino acid absorption; assay type: cell-based, human; settings: 0.1M absorbed 1 hr, gamma 11-18 kGy
Excerpt: as §1, §2
Amino acid absorption: Peptide conjugated T-75 flask was filled with 10 mL of 0.1M of L-methionine methyl ester hydrochloride adjusted to pH 8 with sodium hydroxide. The flasks were lay flat so that the peptide surfaces were submerged under the amino acid solution and were incubated for 1 hr. This allows positive charged amino acid to be absorbed into negative charged peptide-acrylate coating. Then the amino acid solution was removed and the flasks were dried in vacuum for overnight before packing and sterilization. […]
Stem cell culture: H7 cells were sub-cultured into T-75 fasks with desired peptide acrylate surfaces or Matrigel™ coated surfaces (positive control) at the density of 100,000 cell/cm^2 in X-VIVO 10+GF medium. […] Cell number was assessed at day 4 or day 5 by harvesting with collagenase IV/EDTA treatment followed by cell counting with automated cell number/viability analyzer, Vi-Cell (Beckman Coulter). […]

Compound: N[C@@H](Cc1c[nH]c2ccccc12)C(=O)O [L-Tryptophan]
solubility in 1M HCl ([1]; 1M HCl): soluble

Compound: NCCO [ethanolamine, reference compound]
H7 attachment and growth (crystal violet staining) (H7 cells [3]): there were not cells attached or grew

Compound: COC(=O)[C@@H](N)CCSC.Cl [methionine methyl ester, L-methionine methyl ester hydrochloride]
bioactivity of VN-peptide acrylate surface after Gamma irradiation (H7 cells [4]): maintained
stem cell morphology versus positive control (H7 cells [4]): comparable
cell number after 4 days of culture versus ETOH ctr and Matrigel (H7 cells [4]; day 4): comparable
H7 attachment and growth (crystal violet staining) (H7 cells [3]): still support good H7 attachment and growth
cell morphology versus ethanol sanitized surfaces (H7 cells [3]; used as blocking reagent): still not able to much those on ethanol sanitized surfaces

Next, values leading:

solubility in ethanol [1]: soluble
Compound: CCCOC(=O)c1cc(O)c(O)c(O)c1 [n-propyl gallate]

solubility in the ethanol solvent [2]: partial to almost completely soluble
Compound: Ac-KGGPQVTRGDVFTMP-NH2 (C-terminus assumed) [VN peptide]

solubility in ethanol [1]: soluble
Compound: Cc1c(C)c2c(c(C)c1O)CCC(C)(C(=O)O)O2 (stereo not shown) [Trolox]
